The values below come from patent US9670220B2, “Fused heterocyclic derivatives as S1P modulators” (Abbvie B.V., priority 2010, dated 2017).

In one assay the target is human S1P5 receptor (Homo sapiens (Human), UniProt Q9H228). The assay is described as follows: In vitro functional activity (agonism) on human S1P5 receptors, CHO-human-S1P5-Aequorin assay. It counts as cell-based. To be noted: aequorin luminescence; for EC50: read-out: S1P5 pEC50 (converted). How it is done:
In Vitro Functional Activity (Agonism) on Human 51P5 Receptors
The CHO-human-S1P5-Aeqorin assay was bought from Euroscreen, Brussels (Euroscreen, Technical dossier, Human Lysophospholid S1P5 (Edg8) receptor, DNA clone and CHO AequoScreen™ recombinant cell-line, catalog n°: ES-593-A, September 2006). Human-S1P5-Aequorin cells express mitochondrial targeted apo-Aequorin. […] This luminescent response is dependent on the agonist concentration. Luminescence is measured using the MicroBeta Jet (Perkin Elmer). Agonistic effects of compounds are expressed as pEC50.

The target in another assay is human S1P3 receptor (Homo sapiens (Human), UniProt Q99500). The assay is described as follows: In vitro functional activity (agonism) on human S1P3 receptors, CHO-human-S1P3-Aequorin assay. It counts as cell-based. The settings on record: aequorin luminescence; for EC50: read-out: S1P3 pEC50 (converted). The procedure:
In Vitro Functional Activity (Agonism) on Human S1P3 Receptors
The CHO-human-S1P3-Aeqorin assay (CHO/Gα16/AEQ/h-S1P3) was established at Solvay Pharmaceuticals. […] This luminescent response is dependent on the agonist concentration. Luminescence is measured using the MicroBeta Jet (Perkin Elmer). Agonistic effects of compounds are expressed as pEC50.

Assay [1] deals with T1, human S1P1 receptor (Homo sapiens (Human), UniProt P21453). The assay is described as follows: In vitro functional activity (agonism) on human S1P1 receptors (method B), CHO-K1-human S1P1 cAMP assay. It counts as cell-based. To be noted: determined using method B (cAMP, forskolin); for EC50: read-out: S1P1^B pEC50 (converted). How it is done: The CHO-K1-Human S1P1-c-AMP assay was performed at Euroscreenfast, Brussels (Euroscreen, Human S1P1 coupling Gi/0, (Edg1) receptor, catalog no: FAST-0197C, December 2009).
Recombinant CHO-K1 cells expressing human S1P1, grown to mid-log Phase in culture media without antibiotics, detached, centrifuged and re-suspended. For agonist testing cells are mixed with compound and Forskolin and incubated at room temperature. Cells are lyses and cAMP concentration are estimated, according to the manufacturer specification, With the HTRF kit from CIS-BIO International (cat n°62AM2PEB).
Agonistic effects of compounds are expressed as a percentage of the activity of the reference compound at its EC100 concentration, EC50 is calculated and results are reported as pEC50.
(cAMP levels reflect the balance of adenylyl cyclase and phosphodiesterase activity.)

Assay [2] addresses T1, human S1P1 receptor. To be noted: agonism, determined using method A (aequorin). The source says:
In Vitro Functional Activity (Agonism) on Human S1P1 Receptors (Method A)
The CHO-K1-human-S1P1-Acqorin assay was bought from Euroscreen Fast, Brussels (Euroscreen, Technical dossier, Human S1P1 (Edg1) receptor, DNA clone and CHO-K1 AequoScreen™ recombinant cell-line, catalog n°: FAST-0197 L, February 2010). Human-S1P1-Aequorin cells express mitochondrial targeted apo-Aequorin. Cells have to be loaded with coelanterazine, in order to reconstitute active Aequorin. After binding of agonists to the human S1P1 receptor the intracellular calcium concentration increases and binding of calcium to the apo-Aequorin/coelenterazine complex leads to an oxidation reaction of coelenterazine, which results in the production of apo-Aequorin, coelenteramide, CO2 and light ([…]max 469 nm). This luminescent response is dependent on the agonist concentration. Luminescence is measured using the MicroBeta Jet (Perkin Elmer). Agonistic effects of compounds are expressed as pEC50. Compounds were tested at a 10 points half log concentration range, and 2 independent experiments were performed in single point's measurements.

human S1P3 receptor, sequence (Q99500 whole entry): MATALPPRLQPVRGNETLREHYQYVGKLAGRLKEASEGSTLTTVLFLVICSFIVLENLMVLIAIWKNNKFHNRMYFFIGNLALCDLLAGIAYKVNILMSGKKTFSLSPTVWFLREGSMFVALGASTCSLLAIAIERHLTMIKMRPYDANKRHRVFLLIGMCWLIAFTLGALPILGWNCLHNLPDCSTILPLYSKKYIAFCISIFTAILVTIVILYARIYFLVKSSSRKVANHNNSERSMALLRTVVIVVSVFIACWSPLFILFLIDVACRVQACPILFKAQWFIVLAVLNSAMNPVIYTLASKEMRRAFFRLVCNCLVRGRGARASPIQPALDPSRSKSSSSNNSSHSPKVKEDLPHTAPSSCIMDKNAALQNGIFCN
human S1P5 receptor, sequence (Q9H228 whole entry): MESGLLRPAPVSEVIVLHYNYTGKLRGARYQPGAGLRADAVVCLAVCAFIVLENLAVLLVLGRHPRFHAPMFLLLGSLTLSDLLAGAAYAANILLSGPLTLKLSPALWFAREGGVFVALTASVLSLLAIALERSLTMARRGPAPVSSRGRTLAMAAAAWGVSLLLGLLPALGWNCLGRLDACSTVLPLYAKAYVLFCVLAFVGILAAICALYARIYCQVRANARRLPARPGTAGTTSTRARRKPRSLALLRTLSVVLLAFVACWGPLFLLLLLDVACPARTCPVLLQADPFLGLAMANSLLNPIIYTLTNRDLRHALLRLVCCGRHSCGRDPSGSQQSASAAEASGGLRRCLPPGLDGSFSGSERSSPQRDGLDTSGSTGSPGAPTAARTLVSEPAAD
T1 sequence (P21453 whole entry): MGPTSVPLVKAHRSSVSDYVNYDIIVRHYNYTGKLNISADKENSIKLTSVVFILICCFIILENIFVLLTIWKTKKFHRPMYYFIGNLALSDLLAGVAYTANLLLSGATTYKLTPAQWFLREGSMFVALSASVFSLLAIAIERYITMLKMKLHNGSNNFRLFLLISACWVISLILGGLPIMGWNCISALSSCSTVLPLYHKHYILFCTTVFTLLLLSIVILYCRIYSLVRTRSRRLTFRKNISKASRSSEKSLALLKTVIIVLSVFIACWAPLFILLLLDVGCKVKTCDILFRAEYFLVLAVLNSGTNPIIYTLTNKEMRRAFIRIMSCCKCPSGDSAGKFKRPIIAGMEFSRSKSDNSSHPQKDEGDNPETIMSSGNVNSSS

Regarding `O=C(O)CCN1CCc2oc(-c3ccc(OCc4ccccc4F)cc3)cc2C1` [Compound 33, 3-{2-[4-(2-Fluoro-benzyloxy)-phenyl]-6,7-dihydro-4H-furo[3,2-c]pyridine-5-yl}-propionic acid], the EC50 on human S1P5 receptor was 0.0158 µM; at human S1P3 receptor, 3.16 µM; on human S1P1 receptor [1], 0.1 µM.

Consider `O=C(O)CCCN1CCc2oc(-c3ccc(OCc4ccccc4F)cc3)cc2C1` [Compound 35, 4-{2-[4-(2-Fluoro-benzyloxy)-phenyl]-6,7-dihydro-4H-furo[3,2-c]pyridine-5-yl}-butyric acid], for which the EC50 on human S1P5 receptor was 0.00501 µM; at human S1P3 receptor, 5.01 µM; on human S1P1 receptor [1] it was 0.251 µM.

As for `O=C(O)CCN1CCc2oc(-c3ccc(OCc4ccccc4)cc3)nc2C1` [Compound 47], the “S1P5 pEC50” value on human S1P5 receptor is 8.0. In addition, at human S1P3 receptor, the “S1P3 pEC50” value is listed as <5. In addition, the “S1P1^B pEC50” value on human S1P1 receptor [1] is <5.5.

`O=C(O)CCCN1CCc2oc(-c3ccc(OCc4ccccc4)cc3)nc2C1` [Compound 53, 4-{2-[4-Benzyloxy-phenyl]-6,7-dihydro-H-oxazolo[4,5-c]pyridine-5-yl}-butyric acid]: on human S1P5 receptor, the “S1P5 pEC50” value stood at 7.9. For the same compound, at human S1P3 receptor, the “S1P3 pEC50” value is recorded as <5. Also, on human S1P1 receptor [2], the “S1P1^A pEC50” value is recorded as <4.5.

Turning to `O=C(O)CCCN1CCc2oc(-c3ccc(OCc4cccc(F)c4F)cc3)nc2C1` [Compound 57], on human S1P5 receptor, the “S1P5 pEC50” value is recorded as 8.0. The “S1P3 pEC50” value at human S1P3 receptor is on record as <5. Also, on human S1P1 receptor [1], the “S1P1^B pEC50” value was <5.5.

As to `O=C(O)CCCN1CCc2oc(-c3ccc(OCc4ccccc4F)cc3F)cc2C1` [Compound 73, 4-{2-[4-(2-Fluoro-benzyloxy)-2-fluoro-phenyl]-6,7-dihydro-4H-furo[3,2-c]-pyri-dine-5-yl}-butyric acid], at human S1P5 receptor, the “S1P5 pEC50” value was 8.2. Also, the “S1P3 pEC50” value on human S1P3 receptor stood at 6.3. Further, at human S1P1 receptor [1], the “S1P1^B pEC50” value is given as 8.0.

Regarding `CC(CC(=O)O)N1CCc2oc(-c3ccc(OCc4ccccc4)cc3)cc2C1` (stereo not drawn) [Compound 76, 3-{2-[4-Benzyloxy-phenyl]-6,7-dihydro-4H-furo[3,2-c]pyridine-5-yl}-butyric acid], the EC50 was 0.00794 µM on human S1P5 receptor, > 10 µM at human S1P3 receptor and 0.251 µM on human S1P1 receptor [1].

As for `CC(CN1CCc2oc(-c3ccc(OCc4ccc(Cl)cc4)cc3)cc2C1)C(=O)O` (stereo not drawn) [Compound 77, 3-{2-[4-(4-Chloro-benzyloxy)-phenyl]-6,7-dihydro-4H-furo[3,2-c]pyridine-5-yl}-2-methyl-propionic acid], the values for the EC50 at human S1P5 receptor, on human S1P3 receptor and at human S1P1 receptor [1] were 0.00398 µM, 0.794 µM and 0.0316 µM, respectively.

As for `O=C(O)CCCN1CCc2oc(-c3ccc(OCc4ccc(C(F)(F)F)cc4)cc3F)nc2C1` [Compound 85, 4-{2-[4-(4-Trifluoromethyl-benzyloxy)-2-fluoro-phenyl]-6,7-dihydro-H-oxazolo[4,5-c]pyridine-5-yl}-butyric acid], the “S1P5 pEC50” value at human S1P5 receptor turned out to be 8.6. The “S1P3 pEC50” value at human S1P3 receptor turned out to be 6.3. For the same compound, the “S1P1^B pEC50” value on human S1P1 receptor [1] is recorded as <5.5.

`Cc1cc(OCc2ccccc2F)ccc1-c1nc2c(o1)CCN(CCCC(=O)O)C2` [Compound 89, 4-{2-[4-(2-Fluoro-benzyloxy)-2-methyl-phenyl]-6,7-dihydro-H-oxazolo[4,5-c]pyridine-5-yl}-butyric acid]: the “S1P5 pEC50” value at human S1P5 receptor worked out at 8.2. Besides, the “S1P3 pEC50” value at human S1P3 receptor is listed as <5.0. The “S1P1^B pEC50” value at human S1P1 receptor [1] stood at 5.9.

Consider `CC(CN1CCc2oc(-c3ccc(OCc4ccccc4)cc3)nc2C1)C(=O)O` (stereo not drawn) [Compound 146, 3-[2-(4-Benzyloxy-phenyl)-6,7-dihydro-H-oxazolo[4,5-c]pyridine-5-yl]-2-methyl-propionic acid], for which the “S1P5 pEC50” value at human S1P5 receptor is 7.8. Also, the “S1P3 pEC50” value at human S1P3 receptor is on record as <5.0. Also, the “S1P1^B pEC50” value on human S1P1 receptor [1] is on record as <5.5.

As for `CC(CN1CCc2oc(-c3ccc(OCc4ccc(C(F)(F)F)cc4)cc3)nc2C1)C(=O)O` (stereo not drawn) [Compound 156, 3-{2-[4-(4-Trifluoromethyl-benzyloxy)-phenyl]-6,7-dihydro-H-oxazolo[4,5-c]pyridine-5-yl}-2-methyl-propionic acid], the “S1P5 pEC50” value at human S1P5 receptor was 8.4. In addition, on human S1P3 receptor, the “S1P3 pEC50” value stood at 5.5. The “S1P1^B pEC50” value at human S1P1 receptor [1] turned out to be 6.2.

For `CC(CN1CCc2oc(-c3ccc(OCc4ccc(Cl)cc4)cc3)nc2C1)C(=O)O` (stereo not drawn) [Compound 157, 3-{2-[4-(4-Chloro-benzyloxy)-phenyl]-6,7-dihydro-H-oxazolo[4,5-c]pyridine-5-yl}-2-methyl-propionic acid], the “S1P5 pEC50” value at human S1P5 receptor turned out to be 8.1. In addition, the “S1P3 pEC50” value on human S1P3 receptor is 5.3. Also, the “S1P1^B pEC50” value on human S1P1 receptor [1] was 6.2.

`CC(CC(=O)O)N1CCc2oc(-c3ccc(OCc4cccc(F)c4F)cc3)nc2C1` (stereo not drawn) [Compound 175]: at human S1P5 receptor, the “S1P5 pEC50” value was 8.3. Further, on human S1P3 receptor, the “S1P3 pEC50” value came to 5.8. The “S1P1^B pEC50” value on human S1P1 receptor [1] was <5.5.

Turning to `O=C(O)CCCN1CCc2oc(-c3ccc(OCc4ccc(Cl)cc4)c(F)c3)nc2C1` [Compound 211, 4-{2-[4-(4-Chloro-benzyloxy)-3-fluoro-phenyl]-6,7-dihydro-H-oxazolo[4,5-c]pyridine-5-yl}-butyric acid], the “S1P5 pEC50” value at human S1P5 receptor amounted to 8.3. Moreover, the “S1P3 pEC50” value at human S1P3 receptor is recorded as <5.0. Moreover, at human S1P1 receptor [1], the “S1P1^B pEC50” value is given as 6.1.

As for `O=C(O)CCCN1CCc2oc(-c3ccc(OCc4ccc(Cl)c(Cl)c4)cc3F)nc2C1` [Compound 227, 4-{2-[4-(3,4-Dichloro-benzyloxy)-2-fluoro-phenyl]-6,7-dihydro-H-oxazolo[4,5-c]pyridine-5-yl}-butyric acid], the “S1P5 pEC50” value on human S1P5 receptor was determined as 8.5. The “S1P3 pEC50” value on human S1P3 receptor is recorded as <6.0. The “S1P1^B pEC50” value on human S1P1 receptor [1] was determined as 6.0.

Consider `CC(CN1CCc2oc(-c3ccc(OCc4ccc(C(F)(F)F)cc4)cc3F)nc2C1)C(=O)O` (stereo not drawn) [Compound 271, 3-{2-[4-(4-Trifluoromethyl-benzyloxy)-2-fluoro-phenyl]-6,7-dihydro-H-oxazolo[4,5-c]pyridine-5-yl}-2-methyl-propionic acid], for which the “S1P5 pEC50” value at human S1P5 receptor was found to be 8.0. Also, the “S1P3 pEC50” value on human S1P3 receptor stood at 5.4. In addition, the “S1P1^B pEC50” value at human S1P1 receptor [1] is listed as 6.2.

For `O=C(O)C1CC(N2CCc3oc(-c4ccc(OCc5ccc(F)c(F)c5)cc4)nc3C2)C1` (stereo not drawn) [Compound 277, 3-{2-[4-(3,4-Difluorobenzyloxy)-phenyl]-6,7-dihydro-H-oxazolo[4,5-c]pyridine-5-yl}-cyclobutane carboxylic acid], the “S1P5 pEC50” value on human S1P5 receptor worked out at 8.5. For the same compound, on human S1P3 receptor, the “S1P3 pEC50” value is <5.0. Moreover, the “S1P1^A pEC50” value at human S1P1 receptor [2] is 5.2.

For `O=C(O)C1CC(N2CCc3oc(-c4ccc(OCc5ccc(F)c(F)c5)cc4)nc3C2)C1` (stereo not drawn) [Compound 278, 3-{2-[4-(3,4-Difluorobenzyloxy)-phenyl]-6,7-dihydro-H-oxazolo[4,5-c]pyridine-5-yl}-cyclobutane carboxylic acid], the “S1P5 pEC50” value at human S1P5 receptor is listed as 7.4. Moreover, the “S1P3 pEC50” value on human S1P3 receptor is given as <5. Besides, the “S1P1^A pEC50” value at human S1P1 receptor [2] is <5.

Turning to `O=C(O)CCCN1CCc2oc(-c3ccc(OCc4ccccc4F)c(Cl)c3)nc2C1` [Compound 283, 4-{2-[4-(2-Fluoro-benzyloxy)-3-chloro-phenyl]-6,7-dihydro-H-oxazolo[4,5-c]pyridine-5-yl}-butyric acid], at human S1P5 receptor, the “S1P5 pEC50” value came to 7.7. Moreover, the “S1P3 pEC50” value on human S1P3 receptor is given as <5. In addition, the “S1P1^A pEC50” value at human S1P1 receptor [2] was <4.5.

Turning to `O=C(O)C1CC(N2CCc3oc(-c4ccc(OCc5ccc(OC(F)(F)F)cc5)cc4)nc3C2)C1` (stereo not drawn) [Compound 306, 3-{2-[4-(4-Trifluoromethoxybenzyloxy)-phenyl]-6,7-dihydro-H-oxazolo[4,5-c]pyridine-5-yl}-cyclobutane carboxylic acid], at human S1P5 receptor, the “S1P5 pEC50” value is recorded as 8.1. Further, at human S1P3 receptor, the “S1P3 pEC50” value was <5.0. On human S1P1 receptor [2], the “S1P1^A pEC50” value is <5.

For `O=C(O)C1CC(N2CCc3oc(-c4ccc(OCc5ccc(OC(F)(F)F)cc5)cc4)nc3C2)C1` (stereo not drawn) [Compound 307, 3-{2-[4-(4-Trifluoromethoxybenzyloxy)-phenyl]-6,7-dihydro-H-oxazolo[4,5-c]pyridine-5-yl}-cyclobutane carboxylic acid], the “S1P5 pEC50” value on human S1P5 receptor worked out at 7.3. The “S1P3 pEC50” value at human S1P3 receptor is given as <5.0. In addition, the “S1P1^A pEC50” value on human S1P1 receptor [2] is <5.
